Laboratory results taken from patent publication US5767236A, “Linear therapeutic peptides” (Biomeasure, Inc., priority 1995, dated 1998).
Non-standard residues stand in square brackets, D forms with d. Residues, ends and D or L forms follow the SMILES beside them. *: point of attachment. Propionyl = CCC(=O)*

How the values were obtained:
CX-1 colon tumor = assay: Subcutaneous tumor assay, CX-1 colon tumor; format: in vivo, human; settings: 100 μg/injection, s.c., b.i.d.
Experimental: (§1) Treatment of tumors induced by subcutaneous implantation of in vitro maintained cell cultures was initiated only when well established as progressively growing tumors in the first transplant generation from in vitro culture. "No takes" were culled and animals with tumors of similar size were carefully randomized into control and test groups.
(§2) Analogues were tested against all tumor systems except SCLC's and NSCLC's at a screening dose of 100 μg/injection, s.c., in the flank opposite from the tumor, b.i.d. Lung tumors (SCLC and NSCLC) were tested at 250 μg/injection, s.c., b.i.d. Rat breast tumors were tested at 400 Ag/injection, s.c., b.i.d., an equivalent extrapolation from the mouse dose.
(§3) In vivo transplantation established tumor systems were implanted s.c. as a 1-2 mm^3 mince of tumor tissue. Treatment was initiated within 2 to 3 days of implantation.
(§4) Tumor weights (mgs) from tumor dimensions (mm×mm) were calculated following the formula of a prolate ellipsoid: […]
(§5) L×W^2 /2, where L is the longer of the two measurements.
(§6) Tumor measurements were determined with a vernier caliper three times/week.
CZ-1 Mucinous adenocarcinoma, human, tested as xenografts in […]

CX-5 colon tumor = assay: Subcutaneous tumor assay, CX-5 colon tumor; format: in vivo, human; settings: 100 μg/injection, s.c., b.i.d.
Experimental: as §1, §2, §3, §4, §5, §6
GOB-G Moderately differentiated adenocarcinoma, human, tested
as xenografts in athymic nude females.

GRP receptor = biological target: T1, GRP receptor (Rattus norvegicus, UniProt P52500); assay: Assay on binding to GRP receptor ([125I-Tyr4]bombesin displacement, AR42J cell membranes); settings: rat AR42J cell membranes, [125I-Tyr4]bombesin, 30 min, 4° C.; read-out: IC50, affinity binding for the GRP receptors
T1 construct: endogenous in cells; host or cells: rat AR42J pancreatic acinar cells (membrane preparation)
Experimental: Rat AR42J pancreatic acinar cells were cultured in Dulbecco's modified Eagle's medium without antibiotics and supplemented with 10% (vol/vol) fetal calf serum. The incubation atmosphere consisted of 10% C)2 -90% humidified air at 37° C.
Membranes for the bombesin receptor binding assay were obtained by homogenizing AR42J cells (Polytron, setting 6, 15 sec) in ice-cold 50 mM Tris-HCl (Buffer A) and centrifuging twice at 39,000× g (10 min), with an intermediate resuspension in fresh buffer. The final pellets were resuspended in 50 mM Tris-HCl, containing 0.1 mg/ml bacitracin, and 0.1% BSA (Buffer B), and held on ice for the receptor binding assay.
For assay, aliquots (0.4 ml) were incubated with 0.05 ml [^125 I-Tyr^4 ] bombesin (~2200 Ci/mmol, New England Nuclear) and Buffer B, with and without 0.05 ml of unlabeled competing analogs. After a 30 min incubation (4° C.), the bound [^125 I-Tyr^4 ] bombesin was separated from the free by rapid filtration through GF/B filters which had been previously soaked in 0.1% polyethyleneimine. The filters were then washed three times with 5 ml aliquots of ice-cold Buffer A. Specific binding was defined as the total [^125 I-Tyr^4 ] bombesin bound minus that bound in the presence of 1 μM unlabeled bombesin.

[1] = tested on: AT-3 carcinoma of the rat prostate; assay: Subcutaneous tumor assay, AT-3 prostate tumor; format: in vivo; settings: AT-3, s.c. xenografts in athymic nudes, 100 μg/injection, b.i.d.
Experimental: as §1, §2, §3, §4, §5, §6
AT-3 Androgen resistant, undifferentiated fast growing
carcinoma of the rat prostate. A subline of R-3327-H.
Tested as subcutaneous xenografts in athymic nudes.

[2] = tested on: 13762NF rat mammary tumor; assay: Subcutaneous tumor assay, 13762NF breast tumor; format: in vivo; settings: 13762NF in Fischer 344 strain rats; rat breast tumors tested at 400 Ag/injection, s.c., b.i.d.
Experimental: as §1, §2, §3, §4, §5, §6
13762NF Estrogen insensitive rat mammary tumor transplantable in
Fischer 344 strain rats.

M5123 hepatoma = assay: Subcutaneous tumor assay, M5123 hepatoma; format: in vivo, rat; settings: 100 μg/injection, s.c., b.i.d.
Experimental: as §1, §2, §3, §4, §5, §6

[3] = tested on: 11095 squamous cell carcinoma of the rat prostate; assay: Subcutaneous tumor assay, 11095 prostate tumor; format: in vivo; settings: 11095, s.c. xenografts in athymic nudes, 100 μg/injection, b.i.d.
Experimental: as §1, §2, §3, §4, §5, §6
11095 Androgen insensitive, squamous cell carcinoma of the rat
prostate. Originating and transplantable in Fischer 344
strain rats. Tested as subcutaneous xenografts in […]

[4] = tested on: different human and animal tumors; assay: Assay on inhibition of tumor growth, overall statement; format: in vivo; settings: summary of Table 3; inhibitory activity when Percent Test/Control < 80% T/C
Experimental: as §1, §2, §3, §4, §5, §6

[5] = tested on: NCI-H345 human small cell lung cancer (SCLC); assay: Subcutaneous tumor assay, NCI-H345 lung tumor; format: in vivo
Experimental: as §1, §2, §3, §4, §5, §6
An in vitro maintained human small cell lung cancer
(SCLC) graciously prided by Dr. A. Gazdar. Cell
agglomerates produce slow, progressively growing tumors
in approximately 80% of athymic nude mice
when implanted subcutaneously. Tested as
well established subcutaneous
xenografts in athymic nudes.

M7806 hepatoma = assay: Subcutaneous tumor assay, M7806 hepatoma; format: in vivo, rat; settings: 100 μg/injection, s.c., b.i.d.
Experimental: as §1, §2, §3, §4, §5, §6

[6] = tested on: A-549 human non-small cell lung cancer (NSCLC); assay: Subcutaneous tumor assay, A-549 lung tumor; format: in vivo
Experimental: as §1, §2, §3, §4, §5, §6
A-549 An in vitro maintained human non-small cell lung cancer
(NSCLC) obtained from the American Type Culture
Collection repository. Implanted s.c. as a cell
suspension and resultant tumors treated when tumors were […]

MT/W9Q-S breast tumor = assay: Subcutaneous tumor assay, MT/W9Q-S breast tumor; format: in vivo; settings: rat breast tumors tested at 400 Ag/injection, s.c., b.i.d.
Experimental: as §1, §2, §3, §4, §5, §6

[7] = tested on: MX-1 human mammary carcinoma; assay: Subcutaneous tumor assay, MX-1 breast tumor; format: in vivo; settings: MX-1, s.c. xenografts in athymic nude females, 100 μg/injection, b.i.d.
Experimental: as §1, §2, §3, §4, §5, §6
MX-1 Estrogen independent, human poorly
carcinoma. Tested as subcutaneous xenografts in athymic

M7777 hepatoma = assay: Subcutaneous tumor assay, M7777 hepatoma; format: in vivo, rat; settings: 100 μg/injection, s.c., b.i.d.
Experimental: as §1, §2, §3, §4, §5, §6

[8] = tested on: 2PR121D(1)/R adenocarcinoma of the rat prostate; assay: Subcutaneous tumor assay, 2PR121D(1)/R prostate tumor; format: in vivo; settings: s.c. tumors in Nb strain rats, 100 μg/injection, b.i.d.
Experimental: as §1, §2, §3, §4, §5, §6
Androgen resistant, poorly
differentiated adenocarcinoma
of the rate prostate derived as an androgen resistant
subline of 2PR121D(1)/S. Tested as subcutaneous tumors

T1 sequence (P52500 whole entry): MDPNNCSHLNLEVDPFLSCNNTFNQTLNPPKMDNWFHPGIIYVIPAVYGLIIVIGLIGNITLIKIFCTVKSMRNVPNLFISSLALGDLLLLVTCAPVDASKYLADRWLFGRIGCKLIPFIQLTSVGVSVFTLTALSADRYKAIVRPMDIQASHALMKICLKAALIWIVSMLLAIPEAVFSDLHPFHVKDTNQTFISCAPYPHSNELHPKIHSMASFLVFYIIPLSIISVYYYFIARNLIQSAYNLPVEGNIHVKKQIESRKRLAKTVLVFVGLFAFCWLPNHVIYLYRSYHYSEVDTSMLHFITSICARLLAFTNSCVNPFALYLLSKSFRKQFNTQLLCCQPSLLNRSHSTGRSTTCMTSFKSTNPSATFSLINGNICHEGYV

## CC(C)C[C@H](NC(=O)[C@H](CC(C)C)NC(=O)[C@H](Cc1c[nH]cn1)NC(=O)CNC(=O)[C@@H](NC(=O)[C@H](C)NC(=O)[C@H](Cc1c[nH]c2ccccc12)NC(=O)[C@H](CCC(N)=O)NC(=O)[C@H](N)Cc1ccccc1)C(C)C)C(N)=O [BIM-26187, H-D-Phe-Gln-Trp-Ala-Val-Gly-His-Leu-Leu-NH2]
CX-1 colon tumor
  Percent Test/Control (tumor weight): 31%
CX-5 colon tumor
  Percent Test/Control (tumor weight): 83%
GRP receptor
  IC50: 5 nM
[1]
  Percent Test/Control (tumor weight): 36%
[2]
  Percent Test/Control (tumor weight): 70%
M5123 hepatoma
  Percent Test/Control (tumor weight): 62%
[3]
  Percent Test/Control (tumor weight): 50%
[4]
  inhibition of the growth of different human and animal tumors: capable of inhibiting the growth
[5]; NCI-H345 SCLC, s.c. xenografts in athymic nudes, 250 μg/injection, s.c., b.i.d.
  Percent Test/Control (tumor weight): 66%
M7806 hepatoma
  Percent Test/Control (tumor weight): 83%
[6]; A-549 NSCLC, implanted s.c., 250 μg/injection, s.c., b.i.d.
  Percent Test/Control (tumor weight): 63%
[6]; FIG. 2
  growth inhibitory effect on non-small cell lung carcinoma (NSCLC): capable of inhibiting
MT/W9Q-S breast tumor
  Percent Test/Control (tumor weight): 45%
[7]
  Percent Test/Control (tumor weight): 78%
M7777 hepatoma
  Percent Test/Control (tumor weight): 67%
[8]
  Percent Test/Control (tumor weight): 70%

## CSCC[C@H](NC(=O)[C@H](CC(C)C)NC(=O)[C@H](Cc1c[nH]cn1)NC(=O)CNC(=O)[C@@H](NC(=O)[C@H](C)NC(=O)[C@H](Cc1c[nH]c2ccccc12)NC(=O)[C@H](CCC(N)=O)NC(=O)[C@H](N)Cc1ccccc1)C(C)C)C(N)=O [BIM-26218, H-D-Phe-Gln-Trp-Ala-Val-Gly-His-Leu-Met-NH2]
M5123 hepatoma
  Percent Test/Control (tumor weight): 70%
[4]
  inhibition of the growth of different human and animal tumors: capable of inhibiting the growth

## CCCC[C@H](NC(=O)[C@H](Cc1ccccc1)NC(=O)[C@H](Cc1c[nH]cn1)NC(=O)CNC(=O)[C@@H](NC(=O)[C@H](C)NC(=O)[C@H](Cc1c[nH]c2ccccc12)NC(=O)[C@H](CCC(N)=O)NC(=O)[C@H](N)Cc1ccccc1)C(C)C)C(N)=O [BIM-26224, H-D-Phe-Gln-Trp-Ala-Val-Gly-His-Phe-Nle-NH2]
GRP receptor
  IC50: 0.7 nM
[5]; FIG. 1
  growth inhibitory effect on small cell lung carcinoma (SCLC): capable of inhibiting

## CC(=O)N[C@@H](Cc1c[nH]cn1)C(=O)N[C@@H](Cc1c[nH]c2ccccc12)C(=O)N[C@@H](C)C(=O)N[C@H](C(=O)NCC(=O)N[C@@H](Cc1c[nH]cn1)C(=O)N[C@@H](CC(C)C)C(=O)N[C@@H](CC(C)C)C(N)=O)C(C)C [BIM-26225, Acetyl-His-Trp-Ala-Val-Gly-His-Leu-Leu-NH2] (Ac-HWAVGHLL-NH2)
[4]
  inhibition of the growth of different human and animal tumors: capable of inhibiting the growth
M7777 hepatoma
  Percent Test/Control (tumor weight): 52%

## CCC(=O)N[C@@H](Cc1c[nH]cn1)C(=O)N[C@@H](Cc1c[nH]c2ccccc12)C(=O)N[C@@H](C)C(=O)N[C@H](C(=O)N[C@H](C)C(=O)N[C@@H](Cc1c[nH]cn1)C(=O)N[C@@H](CC(C)C)C(=O)N[C@@H](CC(C)C)C(N)=O)C(C)C [BIM-26247, Propionyl-His-Trp-Ala-Val-D-Ala-His-Leu-Leu-NH2] (Propionyl-HWAV[dA]HLL-NH2)
CX-5 colon tumor
  Percent Test/Control (tumor weight): 54%
[4]
  inhibition of the growth of different human and animal tumors: capable of inhibiting the growth

## CSCC[C@H](NC(=O)[C@H](Cc1ccccc1)NC(=O)[C@H](Cc1c[nH]cn1)NC(=O)CNC(=O)[C@@H](NC(=O)[C@H](C)NC(=O)[C@H](Cc1c[nH]c2ccccc12)NC(=O)[C@H](CCC(N)=O)NC(=O)[C@H](N)Cc1ccccc1)C(C)C)C(N)=O [BIM-26269, H--D-Phe--Gln--Trp--Ala--Val--Gly--His--Phe--Met--NH2]
GRP receptor
  IC50: 1.4 nM
